This is an account of results in patent US20110053873A1, “HSP90 INHIBITORS” (TAKEDA PHARMACEUTICAL COMPANY LIMITED, priority 2008, published 2011).

pIC50: −log10 of the molar value.

The test system of the first assay is HSP90.
Test: not given
The settings on record: transformed cells vs normal tissues; cited from earlier work.
Consider `C#CCCCn1c(Cc2cc(OC)c(OC)c(OC)c2Cl)nc2c(N)nc(F)nc21` [PU24FCl], for which the “higher affinity for HSP90 from transformed cells compared to that from normal tissues” value is on record as 10-50 times.

The next assay deals with T1, HSP90α (Homo sapiens, UniProt P07900, I104V).
T1 construct: made in house; host or cells: E. coli (BL21)
The assay is described as follows: Enzyme binding (competition fluorescence polarization) assay with TSD-FP probe. The settings on record: method of Example A-1; incubation time not stated; read-out: Binding Affinity IC50. On the procedure: The reaction can be followed kinetically using fluorescence (excitation λ=485 nm; emission λ=538 nm). The binding affinity of the test compound to HSP90 is determined by the changes in the polarized fluorescence; the intensity of the polarized fluorescence is proportional to the fraction of bound probe. A novel small molecule fluorescence probe, (S,E)-5-(2-(2-amino-7-(4-fluoro-2-(6-methoxypyridin-2-yl)phenyl)-4-methyl-7,8-dihydroquinazolin-5(6H)-ylideneaminooxy)ethylcarbamoyl)-2-(6-hydroxy-3-oxo-3H-xanthene-9-yl)benzoic acid (TSD-FP probe) was specifically developed for the assay. Inhibition constants (IC50) may be calculated by non-linear curve fitting of the compound concentrations and fluorescence intensities to the standard IC50 equation.
1. Enzyme Binding (Fluorescence Polarization) Assay for HSP90 Inhibitors.
a. Preparation of HSP90c Protein
This example describes cloning, expression and purification of a protein comprising the N-terminal domain of HSP90α. It should be noted that a variety of other expression systems and hosts are also suitable for the expression of such protein, as would be readily appreciated by one of skill in the art.
The sequence of human wild-type HSP90α is well known in the art; see, Chen B. et al. Genomics 2005 86:627-637. The gene encoding HSP90α can be isolated from RNA, cDNA or cDNA libraries. In this case, the gene encoding residues 9-236 of image clone 5270926 of HSP90α (ATCC) was isolated. This portion of the gene encoding a section of human HSP90α that includes the N-terminal nucleotide binding domain of human HSP90 was cloned into pET28a vector (Novagen). The DNA sequence of the vector is shown in SEQ ID NO: 1. Expression from this vector produced a protein consisting of the recombinant N-terminal nucleotide binding domain of HSP90α with a cleavable 6×-histidine tag and a cleavage site at the N-terminus. The amino acid sequence of this recombinant protein is shown in SEQ ID NO: 2.
Recombinant human N-terminal truncated His6-HSP90α was expressed in E. coli (BL21) cells with IPTG induction. Cell paste from 24×60 mL tubes (grown in a multi-tube airlift fermentor) was lysed using an automated sample lyser. Briefly, the pellet in each tube was suspended in 21 mL of lysis buffer consisting of 50 mM Tris pH 7.9, 50 mM NaCl, 1 mM MgCl2, 0.6 g/L Lysozyme (Sigma), 100 μL/L Benzonase (Novagen). […] After incubation, 5 M NaCl was added to bring the final salt concentration to 400 mM. The tubes were sonicated for 50 seconds and then centrifuged at 3400 rpm for 50 min. The supernatants were pooled and 4 ml of ProBond Ni resin (Invitrogen) was added. After at least 30 minutes, the resin was spun down, washed with 25 mM Tris pH 7.6, 400 mM NaCl, 20 mM imidazole, poured into a column and washed with 10 column volumes of the same buffer. The protein was eluted from the column using 3 column volumes of 25 mM Tris pH 7.6, 400 mM NaCl, 400 mM imidazole. The eluate was loaded onto a Supedex 200 column (GE Healthcare) equilibrated with 25 mM Tris pH 7.6, 250 mM NaCl, 0.25 mM TCEP, 1 mM EDTA and peak fractions were pooled and concentrated to ˜6 mg/mL using 10 kDA MWCO centrifugal concentrators (Millipore). Aliquots were flash frozen in liquid nitrogen and stored at −80° C. All purification was done at 4° C.
b. Preparation of the Fluorescence Polarization Probe.
A fluorescein labeled small molecule was designed and synthesized as a probe (TSD-FP probe) for the determination of the binding affinity of the test compound to HSP90 proteins. The synthesis of the small molecule, (S,E)-2-amino-7-(4-fluoro-2-(6-methoxypyridin-2-yl)phenyl)-4-methyl-7,8-dihydroquinazolin-5(6H)-one O-2-aminoethyl oxime (Compound 24) was described in Examples 24 and 25 above. The TSD-FP probe was prepared according to the following procedure:
c. Assaying the In Vitro Enzymatic Activity of HSP90 Inhibitors.
The inhibitory effect of the compounds of the invention against HSP90α was determined by fluorescence polarization assay.
A word on the pIC50: it is the IC50 on a negative log10 scale, so that one unit is a factor of ten. Consider `COc1cccc(-c2cc(F)ccc2[C@H]2Cc3nc(N)nc(C)c3C(NOCC(=O)N(C)C)=N2)n1` [Compound 83, (R,Z)-2-(2-amino-7-(4-fluoro-2-(6-methoxypyridin-2-yl)phenyl)-4-methyl-7,8-dihydropyrido[4,3-d]pyrimidin-5(6H)-ylideneaminooxy)-N,N-dimethylacetamide], for which the negative-log IC50 (pIC50) is 8.10.

For `COc1cccc(-c2cc(F)ccc2[C@H]2Cc3nc(N)nc(C)c3/C(=N/O)N2)n1` [Compound 61, (R,Z)-2-amino-7-(4-fluoro-2-(6-methoxypyridin-2-yl)phenyl)-4-methyl-7,8-dihydropyrido[4,3-d]pyrimidin-5(6H)-one oxime], the pIC50 was 8.52. With `COc1cccc(-c2cc(F)ccc2[C@H]2Cc3nc(N)nc(C)c3C(NOCC(CO)CO)=N2)n1` [Compound 35, (R,Z)-2-Amino-7-(4-fluoro-2-(6-methoxypyridin-2-yl)phenyl)-4-methyl-7,8-dihydropyrido[4,3-d]pyrimidin-5(6H)-one O-3-hydroxy-2-(hydroxymethyl)propyl oxime], the pIC50 is 7.89. On to `COc1cccc(-c2cc(F)ccc2[C@H]2Cc3nc(N)nc(C)c3/C(=N/O[C@@H](CCO)C(=O)N(C)C)N2)n1` [Compound 93, (S)-2-((Z)-((R)-2-amino-7-(4-fluoro-2-(6-methoxypyridin-2-yl)phenyl)-4-methyl-7,8-dihydropyrido[4,3-d]pyrimidin-5(6H)-ylidene)aminooxy)-4-hydroxy-N,N-dimethylbutanamide], for which the pIC50 was 8.10. Take `COc1cccc(-c2cc(F)ccc2[C@H]2Cc3nc(N)nc(C)c3C(NOCC3C[C@@H](O)[C@@H](O)C3)=N2)n1` (stereo partly drawn) [Compound 59, (7R,Z)-2-amino-7-(4-fluoro-2-(6-methoxypyridin-2-yl)phenyl)-4-methyl-7,8-dihydropyrido[4,3-d]pyrimidin-5(6H)-one O-((3R,4S)-3,4-dihydroxycyclopentyl)methyl oxime]: the pIC50 was 8.10. `COc1cccc(-c2cc(F)ccc2[C@H]2Cc3nc(N)nc(C)c3/C(=N/OCCCCO)N2)n1` [Compound 79, (R,Z)-2-amino-7-(4-fluoro-2-(6-methoxypyridin-2-yl)phenyl)-4-methyl-7,8-dihydropyrido[4,3-d]pyrimidin-5(6H)-one O-4-hydroxybutyl oxime]: the negative logarithm of the IC50 (pIC50) was 8.22. For `COc1cccc(-c2cc(F)ccc2[C@H]2Cc3nc(N)nc(C)c3/C(=N/OCC(=O)N(C)CCO)N2)n1` [Compound 99, (R,Z)-2-(2-amino-7-(4-fluoro-2-(6-methoxypyridin-2-yl)phenyl)-4-methyl-7,8-dihydropyrido[4,3-d]pyrimidin-5(6H)-ylideneaminooxy)-N-(2-hydroxyethyl)-N-methylacetamide], the pIC50 is 8.10.

`COc1cccc(-c2cc(F)ccc2[C@H]2Cc3nc(N)nc(C)c3C(NOC3C[C@@H](O)[C@@H](O)C3)=N2)n1` (stereo partly drawn) [Compound 58, (7R,Z)-2-amino-7-(4-fluoro-2-(6-methoxypyridin-2-yl)phenyl)-4-methyl-7,8-dihydropyrido[4,3-d]pyrimidin-5(6H)-one O-(3R,4S)-3,4-dihydroxycyclopentyl oxime]: the pIC50 was 8.30. `COc1cccc(-c2cc(F)ccc2[C@H]2Cc3nc(N)nc(C)c3C(NOCC3CCC(O)CC3)=N2)n1` (stereo partly drawn) [Compound 65, (R,Z)-2-amino-7-(4-fluoro-2-(6-methoxypyridin-2-yl)phenyl)-4-methyl-7,8-dihydropyrido[4,3-d]pyrimidin-5(6H)-one O-((1s,4S)-4-hydroxycyclohexyl)methyl oxime]: the pIC50 was 8.00. As to `COc1cccc(-c2cc(F)ccc2[C@H]2Cc3nc(N)nc(C)c3C(NOCCCO)=N2)n1` [Compound 78, (R,Z)-2-amino-7-(4-fluoro-2-(6-methoxypyridin-2-yl)phenyl)-4-methyl-7,8-dihydropyrido[4,3-d]pyrimidin-5(6H)-one O-3-hydroxypropyl oxime], the negative-log IC50 (pIC50) is 8.40. `COc1cccc(-c2cc(F)ccc2[C@H]2Cc3nc(N)nc(C)c3/C(=N/OC[C@H](O)CO)N2)n1` [Compound 33, (R,Z)-2-Amino-7-(4-fluoro-2-(6-methoxypyridin-2-yl)phenyl)-4-methyl-7,8-dihydropyrido[4,3-d]pyrimidin-5(6H)-one O—(R)-2,3-dihydroxypropyl oxime]: the negative-log IC50 (pIC50) is 8.40. Consider `COc1cccc(-c2cc(F)ccc2[C@H]2Cc3nc(N)nc(C)c3C(NOCC(=O)N(C)C[C@H](O)CO)=N2)n1` [Compound 96, 2-((Z)-((R)-2-amino-7-(4-fluoro-2-(6-methoxypyridin-2-yl)phenyl)-4-methyl-7,8-dihydropyrido[4,3-d]pyrimidin-5(6H)-ylidene)aminooxy)-N—((S)-2,3-dihydroxypropyl)-N-methylacetamide], for which the pIC50 was 7.89.

With `COc1cccc(-c2cc(F)ccc2[C@H]2Cc3nc(N)nc(C)c3/C(=N/OCC[C@H](O)CO)N2)n1` [Compound 37, (R,Z)-2-amino-7-(4-fluoro-2-(6-methoxypyridin-2-yl)phenyl)-4-methyl-7,8-dihydropyrido[4,3-d]pyrimidin-5(6H)-one O—(S)-3,4-dihydroxybutyl oxime], the pIC50 is 8.22. In the case of `COc1cccc(-c2cc(F)ccc2[C@H]2Cc3nc(N)nc(C)c3/C(=N/OCC(=O)N3CC[C@@H](F)C3)N2)n1` [Compound 85, 2-((Z)-((R)-2-amino-7-(4-fluoro-2-(6-methoxypyridin-2-yl)phenyl)-4-methyl-7,8-dihydropyrido[4,3-d]pyrimidin-5(6H)-ylidene)aminooxy)-1-((R)-3-fluoropyrrolidin-1-yl)ethanone], the negative logarithm of the IC50 (pIC50) was 8.40.

The test system of a further assay is cells.
Test: not given
The following applies: cited from earlier work.
Consider `C#CCCCn1c(Cc2cc(OC)c(OC)c(OC)c2Cl)nc2c(N)nc(F)nc21` [PU24FCl], for which the “concentration range of biological effects on cells” value is reported as 2-6 μM.
